What all share (assay type): in vivo, mouse
For data set [1], the system named is atrogin-1. Description: Atrogin-1 mRNA in quadriceps muscles, qPCR. The note with it: old mdx Sim mice. An excerpt: Another pathway that has been implicated in statin myopathy is muscle atrophy mediated by atrogin-1, a ubiquitin-protein ligase that stimulates protein breakdown. Atrogin-1 is induced by statin treatment in animal models and humans with statininduced myopathy. However, in DMD, atrogin-1 levels are consistently lower than in normal muscle and are not increased at any stage of the disease.
Total RNA was isolated from quadriceps of WT, mdx, and simvastatintreated mdx mice using Trizol (Life Technologies) and further purified using an RNAeasy Kit (Qiagen). Real-time quantitative RT-PCR (qPCR) was performed using TaqMan chemistry and the ABI 7000 sequence detection system with 50 ng of RNA, ABI Fast Virus 1-Step Master Mix reagents, and primer sets specific for atrogin-1 and HPRT (Applied Biosystems). Data were obtained from 5 mice in each treatment group and normalized to the internal HPRT control.

Data set [2] relates to mdx mice. The data set can be described thus: TA muscle function in situ (specific force, fatigue, recovery). The protocol: Hindlimb (TA) muscle physiology was measured in situ, which has the advantages of direct nerve stimulation and intact blood circulation. […] We also evaluated muscle fatigue resistance and recovery from fatigue, because this is a major cause of weakness in dystrophic muscle. TA muscle fatigue was assessed after 1 min and 2 min of repetitive tetanic contractions (2 sec apart). […] Recovery from muscle fatigue was measured every 2 min up to 10 min post fatigue.
Muscle degeneration and loss of function in DMD begins very early in the disease and progressively worsens over time. Consequently, useful therapeutic agents must be effective when administered at various stages of the disease. […] Hindlimb (TA) muscle physiology was measured in situ. This method has the advantages of direct nerve stimulation and intact blood circulation, which provides an essentially in vivo approach for measuring muscle function. Remarkably, specific muscle force increased by 40% (P<0.001) for mdx Sim compared to mdx Con mice, a dramatic increase for a pharmacological agent.
In addition to the loss of specific force, increased muscle fatigue and slowed force recovery are also significant causes of muscle weakness in DMD. Muscle fatigue in TA was measured during repetitive tetanic contractions (every 2 seconds) for a total of 2 minutes. For mdx Con mice, force declined rapidly during the early part of the fatigue and then much less steeply for the remainder of the contractions (FIG. 12A). In contrast, the force decline for mdx Sim was very similar to the WT groups, with a slow force drop over the first minute and then a greater decline over the last minute (see FIG. 12B). […] Recovery from fatigue was measured up to 10 min post fatigue (FIG. 12C). […] The cellular mechanisms of muscle fatigue are complex, however ROS are known to be an important cause of force loss during muscle fatigue.
Tibialis anterior (TA) muscle function was measured in situ. Mice were anaesthetized with an intraperitoneal injection of Avertin (625 mg/kg) and placed on a heated metal platform (37° C.). The distal TA tendon was dissected free and sutured to the lever arm of the force and length control system (305C-LR, Aurora Scientific). Muscle contraction was provided by stimulation of the Sciatic nerve using bipolar electrodes, which was kept moist during the experiment with PBS. The knee bone was firmly anchored to the platform via a steel pin. A length-force curve was generated by stimulating the muscle at 120 Hz (200 ms duration), every 90 sec, from short to long muscle lengths. […] Fatigue recovery was measured every 2 min up to 10 min post-fatigue. […] Membranes were incubated with enhanced chemiluminescence (ECL) reagent (Amersham) and bands were detected by the FluorChem M, imaging system (Protein Simple).

In data set [3] the test system is mdx mice. Description: Diaphragm fibrosis (fibronectin immunofluorescence, hydroxyproline assay for collagen I). An excerpt:
In order to be a viable treatment approach for DMD, a drug must be efficacious at different stages of the disease and target both skeletal and cardiac muscle. […] Diaphragm force production progressively declines with age in both mdx mice and DMD. […] The replacement of muscle fibers with fibrotic connective tissue is a major cause of impaired muscle force generation in DMD and therefore an important therapeutic target. […] Quantification of total collagen I levels by hydroxyproline assay indicated a 50% reduction in fibrosis for mdx Sim mice.
The diaphragm most closely recapitulates the functional deficits and fibrotic deposition that occur in DMD. […] Quantification of total collagen I levels in diaphragm muscles by hydroxyproline assay also indicated a 50% reduction in fibrosis for mdx Sim mice (FIG. 13E).
Muscles were imbedded in O.C.T compound and frozen in isopentane cooled in liquid nitrogen. […] For fluorescence quantification (CD68, fibronectin and myosin heavy chains), images were converted to grayscale in Image J and a threshold applied to calculate the area of fluorescence as a percent of the total area of the section. Fibers with central nuclei were expressed as a percent of total fibers with detectable nuclei (ie. both central and peripheral).
To quantify muscle fibrosis, Collagen I content was measured using the hydroxyproline assay. […]

The record followed here is patent publication US9974767B2, “Statins in the treatment of muscular dystrophies and myopathies” (University of Washington, priority 2014, dated 2018).

Regarding `CCC(C)(C)C(=O)O[C@H]1C[C@@H](C)C=C2C=C[C@H](C)[C@H](CC[C@@H]3C[C@@H](O)CC(=O)O3)[C@H]21` [Simvastatin, simvastatin], the “atrogin-1 mRNA levels” value in data set [1] is “not significantly different from mdx Con”. In data set [2] (mdx Sim), the “force recovery at 2 min post fatigue” value is reported as 80.9 % of the initial, pre-fatigue force and the “force recovery at 10 min post fatigue” value is 86.9%. Besides, the “increase of hindlimb (TA) specific muscle force” value in data set [2] (mdx Sim vs mdx Con, treatment from 3 to 6 months of age) was determined as 40%. Besides, the “TA force after 1 minute of fatigue” value in data set [2] (mdx Sim, tetanic contractions every 2 sec, mdx Con 53%) is 68 % of initial force. Also, the “attenuation of fibrosis, fibronectin immunofluorescence” value in data set [3] (diaphragm sections, old mdx Sim vs mdx Con) is on record as 50%. Besides, the “reduction in fibrosis, total collagen I levels by hydroxyproline assay” value in data set [3] (diaphragm, old mdx mice, 2 months treatment) is reported as 50%.
